{"source": "patent US11084796B2", "about": "“Heterocyclic derivatives for the treatment of RSV” (GEORGIA STATE UNIVERSITY RESEARCH FOUNDATION, INC., priority 2016, dated 2021)", "data": [{"system": "RSV", "experiment": "Potency range (EC50 values) of C series compounds against RSV", "type": "cell-based", "settings": "human respiratory syncytial virus", "method": "Two-fold serial dilutions of hit candidates were prepared in 384-well plates in three replicates each using the Nimbus liquid handler. BEAS-2B cells (8×10^3/well) were then plated as before, serial dilutions transferred using the pin-tool, and cells infected with recombinant virus strains expressing distinct luciferase reporter proteins or left uninfected for cell viability assessment. Reporter signals were recorded as outlined above. To determine cell viability, PrestoBlue substrate (life technologies) was added after 40-hour incubation of cells at 37° C. (5 μl/well) and top-read fluorescence (excitation 560 nm; emission 590 nm; instrument gain 85) recorded after 45 minutes of incubation at 37° C. using the H1 synergy plate reader. Four-parameter variable slope regression modeling was applied to determine 50% active (EC50) and toxic (CC50) concentrations.", "units": {"EC50": "µM"}, "values": [{"smiles": "O=C(CN1C(=O)C(C(=O)N2CCCCC2)Sc2ccccc21)NC1CCCCC1", "note": "(centres unmarked) [AVG-044, N-cyclohexyl-2-(3-oxo-2-(piperidine-1-carbonyl)-2H-benzo[b][1,4]thiazin-4(3H)-yl) acetamide]", "EC50": "1 to 10"}, {"smiles": "O=C(CN1C(=O)C(C(=O)N2CCCCC2)Sc2ccccc21)NC1CCOCC1", "note": "(centres unmarked) [AVG-045]", "EC50": "> 20"}, {"smiles": "O=C(CN1C(=O)C(C(=O)N2CCCCC2)Sc2ccccc21)NC1CCNCC1", "note": "(centres unmarked) [AVG-046]", "EC50": "> 20"}, {"smiles": "CN1CCC(NC(=O)CN2C(=O)C(C(=O)N3CCCCC3)Sc3ccccc32)CC1", "note": "(centres unmarked) [AVG-047]", "EC50": "> 20"}, {"smiles": "CC(C)NC(=O)CN1C(=O)C(C(=O)N2CCCCC2)Sc2ccccc21", "note": "(centres unmarked) [AVG-048]", "EC50": "> 20"}, {"smiles": "CC1CCC(NC(=O)CN2C(=O)C(C(=O)N3CCCCC3)Sc3ccccc32)CC1", "note": "(centres unmarked) [AVG-049]", "EC50": "1 to 10"}, {"smiles": "CC1(C)CCC(NC(=O)CN2C(=O)C(C(=O)N3CCCCC3)Sc3ccccc32)CC1", "note": "(centres unmarked) [AVG-050]", "EC50": "1 to 10"}, {"smiles": "O=C(CN1C(=O)C(C(=O)N2CCCCC2)Sc2ccccc21)NC1CCCC1", "note": "(centres unmarked) [AVG-051]", "EC50": "1 to 10"}, {"smiles": "Cc1ccccc1NC(=O)CN1C(=O)C(C(=O)N2CCCCC2)Sc2ccccc21", "note": "(centres unmarked) [AVG-052]", "EC50": "1 to 10"}, {"smiles": "Cc1cccc(NC(=O)CN2C(=O)C(C(=O)N3CCCCC3)Sc3ccccc32)c1", "note": "(centres unmarked) [AVG-053]", "EC50": "> 20"}, {"smiles": "O=C(CN1C(=O)C(C(=O)N2CCOCC2)Sc2ccccc21)NC1CCCCC1", "note": "(centres unmarked) [AVG-054, N-cyclohexyl-2-(2-(morpholine-4-carbonyl)-3-oxo-2H-benzo[b][1,4]thiazin-4(3H)-yl) acetamide]", "EC50": "1 to 10"}, {"smiles": "O=C(CN1C(=O)C(C(=O)N2CCNCC2)Sc2ccccc21)NC1CCCCC1", "note": "(centres unmarked) [AVG-055]", "EC50": "> 20"}, {"smiles": "CN1CCN(C(=O)C2Sc3ccccc3N(CC(=O)NC3CCCCC3)C2=O)CC1", "note": "(centres unmarked) [AVG-056]", "EC50": "10 to 20"}, {"smiles": "CN(C)C(=O)C1Sc2ccccc2N(CC(=O)NC2CCCCC2)C1=O", "note": "(centres unmarked) [AVG-057]", "EC50": "1 to 10"}, {"smiles": "O=C(CN1C(=O)C(C(=O)NC2CCCCC2)Sc2ccccc21)NC1CCCCC1", "note": "(centres unmarked) [AVG-058]", "EC50": "1 to 10"}, {"smiles": "CN(C(=O)CN1C(=O)C(C(=O)N2CCCCC2)Sc2ccccc21)C1CCCCC1", "note": "(centres unmarked) [AVG-059]", "EC50": "> 20"}, {"smiles": "O=C(CN1C(=O)C(C(=O)N2CCCCC2)Sc2ccccc21)N1CCCCC1", "note": "(centres unmarked) [AVG-060]", "EC50": "> 20"}, {"smiles": "O=C(CN1C(=O)C(C(=O)N2CCCCC2)Sc2c(Cl)cccc21)NC1CCCCC1", "note": "(centres unmarked) [AVG-061]", "EC50": "1 to 10"}, {"smiles": "O=C(CN1C(=O)C(C(=O)N2CCCCC2)Sc2cc(Cl)ccc21)NC1CCCCC1", "note": "(centres unmarked) [AVG-062]", "EC50": "0.1 to 1"}, {"smiles": "O=C(CN1C(=O)C(C(=O)N2CCCCC2)Sc2ccc(Cl)cc21)NC1CCCCC1", "note": "(centres unmarked) [AVG-063]", "EC50": "1 to 10"}, {"smiles": "O=C(CN1C(=O)C(C(=O)N2CCCCC2)Sc2cccc(Cl)c21)NC1CCCCC1", "note": "(centres unmarked) [AVG-064]", "EC50": "10 to 20"}, {"smiles": "O=C(CN1C(=O)C(C(=O)NC2CCOCC2)Sc2ccccc21)NC1CCCCC1", "note": "(centres unmarked) [AVG-083]", "EC50": "> 20"}, {"smiles": "O=C(CN1C(=O)C(C(=O)NC2CCNCC2)Sc2ccccc21)NC1CCCCC1", "note": "(centres unmarked) [AVG-084]", "EC50": "> 20"}, {"smiles": "CN1CCC(NC(=O)C2Sc3ccccc3N(CC(=O)NC3CCCCC3)C2=O)CC1", "note": "(centres unmarked) [AVG-085]", "EC50": "> 20"}, {"smiles": "CCCCNC(=O)C1Sc2ccccc2N(CC(=O)NC2CCCCC2)C1=O", "note": "(centres unmarked) [AVG-086]", "EC50": "10 to 20"}, {"smiles": "CC(C)NC(=O)C1Sc2ccccc2N(CC(=O)NC2CCCCC2)C1=O", "note": "(centres unmarked) [AVG-087]", "EC50": "10 to 20"}, {"smiles": "O=C(C1Sc2ccccc2N(Cc2nc3ccccc3o2)C1=O)N1CCCCC1", "note": "(centres unmarked) [AVG-111]", "EC50": "> 20"}, {"smiles": "O=C(C1Sc2ccccc2N(Cc2nc3ccccc3[nH]2)C1=O)N1CCCCC1", "note": "(centres unmarked) [AVG-112]", "EC50": "10 to 20"}, {"smiles": "NC(=O)CN1C(=O)C(C(=O)N2CCCCC2)Sc2ccccc21", "note": "(centres unmarked) [AVG-113]", "EC50": "> 20"}, {"smiles": "O=C(CN1C(=O)C(C(=O)N2CCCCC2)Sc2ccccc21)NC1CC1", "note": "(centres unmarked) [AVG-114]", "EC50": "> 20"}, {"smiles": "O=C(CN1C(=O)C(C(=O)N2CCCCC2)Sc2ccccc21)NCc1ccccc1", "note": "(centres unmarked) [AVG-137]", "EC50": "1 to 10"}, {"smiles": "CC(NC(=O)CN1C(=O)C(C(=O)N2CCCCC2)Sc2ccccc21)c1ccccc1", "note": "(centres unmarked) [AVG-138]", "EC50": "1 to 10"}, {"smiles": "CC(C)(NC(=O)CN1C(=O)C(C(=O)N2CCCCC2)Sc2ccccc21)c1ccccc1", "note": "(centres unmarked) [AVG-139]", "EC50": "1 to 10"}, {"smiles": "CC(C)(C)NC(=O)CN1C(=O)C(C(=O)N2CCCCC2)Sc2ccccc21", "note": "(centres unmarked) [AVG-140]", "EC50": "1 to 10"}, {"smiles": "CC(C)(C)NC(=O)C1Sc2ccccc2N(CC(=O)NC2CCCCC2)C1=O", "note": "(centres unmarked) [AVG-141]", "EC50": "1 to 10"}, {"smiles": "O=C(CN1C(=O)C(C(=O)NCc2ccccc2)Sc2ccccc21)NC1CCCCC1", "note": "(centres unmarked) [AVG-142]", "EC50": "10 to 20"}, {"smiles": "CC(NC(=O)C1Sc2ccccc2N(CC(=O)NC2CCCCC2)C1=O)c1ccccc1", "note": "(centres unmarked) [AVG-143]", "EC50": "> 20"}, {"smiles": "CC(C)(NC(=O)C1Sc2ccccc2N(CC(=O)NC2CCCCC2)C1=O)c1ccccc1", "note": "(centres unmarked) [AVG-144]", "EC50": "1 to 10"}, {"smiles": "COc1cccc2c1SC(C(=O)N1CCCCC1)C(=O)N2CC(=O)NC1CCCCC1", "note": "(centres unmarked) [AVG-145]", "EC50": "1 to 10"}, {"smiles": "COc1ccc2c(c1)SC(C(=O)N1CCCCC1)C(=O)N2CC(=O)NC1CCCCC1", "note": "(centres unmarked) [AVG-146]", "EC50": "1 to 10"}, {"smiles": "COc1ccc2c(c1)N(CC(=O)NC1CCCCC1)C(=O)C(C(=O)N1CCCCC1)S2", "note": "(centres unmarked) [AVG-147]", "EC50": "10 to 20"}, {"smiles": "COc1cccc2c1N(CC(=O)NC1CCCCC1)C(=O)C(C(=O)N1CCCCC1)S2", "note": "(centres unmarked) [AVG-148]", "EC50": "10 to 20"}, {"smiles": "O=C(CN1C(=O)C(C(=O)N2CCCCC2)Sc2cc(Br)ccc21)NC1CCCCC1", "note": "(centres unmarked) [AVG-149]", "EC50": "1 to 10"}, {"smiles": "O=C(CN1C(=O)C(C(=O)N2CCCCC2)Sc2cc(F)ccc21)NC1CCCCC1", "note": "(centres unmarked) [AVG-150]", "EC50": "1 to 10"}, {"smiles": "Cc1ccc2c(c1)SC(C(=O)N1CCCCC1)C(=O)N2CC(=O)NC1CCCCC1", "note": "(centres unmarked) [AVG-151]", "EC50": "10 to 20"}, {"smiles": "CCc1ccc2c(c1)SC(C(=O)N1CCCCC1)C(=O)N2CC(=O)NC1CCCCC1", "note": "(centres unmarked) [AVG-152]", "EC50": "1 to 10"}, {"smiles": "CC(C)c1ccc2c(c1)SC(C(=O)N1CCCCC1)C(=O)N2CC(=O)NC1CCCCC1", "note": "(centres unmarked) [AVG-153]", "EC50": "1 to 10"}, {"smiles": "O=C(CN1C(=O)C(C(=O)N2CCCCC2)Sc2cc(-c3ccccc3)ccc21)NC1CCCCC1", "note": "(centres unmarked) [AVG-154]", "EC50": "> 20"}, {"smiles": "O=C(CN1C(=O)C(C(=O)N2CCCCC2)Sc2cnccc21)NC1CCCCC1", "note": "(centres unmarked) [AVG-155]", "EC50": "1 to 10"}, {"smiles": "O=C(CN1C(=O)C(C(=O)N2CCCCC2)Sc2cc(C(F)(F)F)ccc21)NC1CCCCC1", "note": "(centres unmarked) [AVG-156]", "EC50": "1 to 10"}, {"smiles": "C=C(C)c1ccc2c(c1)SC(C(=O)N1CCCCC1)C(=O)N2CC(=O)NC1CCCCC1", "note": "(centres unmarked) [AVG-215]", "EC50": "1 to 10"}, {"smiles": "O=C(CN1C(=O)C(C(=O)N2CCCCC2)Sc2ccccc21)NCC1CCCCC1", "note": "(centres unmarked) [AVG-216]", "EC50": "1 to 10"}, {"smiles": "O=C(CN1C(=O)C(C(=O)N2CCCCC2)Sc2cc(Cl)ccc21)NCC1CCCCC1", "note": "(centres unmarked) [AVG-217]", "EC50": "1 to 10"}, {"smiles": "O=C(CN1C(=O)C(C(=O)NC2CCCCC2)Sc2cc(Cl)ccc21)NC1CCCCC1", "note": "(centres unmarked) [AVG-218]", "EC50": "1 to 10"}, {"smiles": "Cc1ccccc1NC(=O)CN1C(=O)C(C(=O)N2CCCCC2)Sc2cc(Cl)ccc21", "note": "(centres unmarked) [AVG-219]", "EC50": "0.1 to 1"}, {"smiles": "O=C(CN1C(=O)C(C(=O)N2CCCCC2)Sc2ccccc21)Nc1ccccc1Cl", "note": "(centres unmarked) [AVG-220]", "EC50": "1 to 10"}, {"smiles": "COc1ccccc1NC(=O)CN1C(=O)C(C(=O)N2CCCCC2)Sc2ccccc21", "note": "(centres unmarked) [AVG-221]", "EC50": "1 to 10"}, {"smiles": "O=C(CN1C(=O)C(C(=O)N2CCCCC2)Sc2ccccc21)Nc1cccnc1", "note": "(centres unmarked) [AVG-223]", "EC50": "10 to 20"}, {"smiles": "O=C(CN1C(=O)C(C(=O)N2CCCCC2)Sc2ccccc21)Nc1ccncc1", "note": "(centres unmarked) [AVG-224]", "EC50": "10 to 20"}]}]}
